We go through 6 molecules from patent US9695155B2, “Herbicidal substituted pyrimidinyloxy benzene compounds” (E. I. DU PONT DE NEMOURS AND COMPANY, priority 2013, dated 2017).

In assay [1] the test system is rice. The assay can be described thus: Test C flooded paddy test. The settings on record: Flood, scale 0 to 100 (0 no effect, 100 complete control), 13 to 15 days. The class given is in vivo, Oryza sativa. Summed up:
(§1)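 Visual injury ratings against untreated controls, taken 13 to 15 days after compound was added to paddy water standing 3 cm above the soil.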

Assay [2] relates to sedge, umbrella. The assay can be described thus: Test C flooded paddy test. The class given is in vivo, Cyperus difformis. Particulars: Flood, scale 0 to 100 (0 no effect, 100 complete control), 13 to 15 days. The method, boiled down: as §1
Assay [3] concerns barnyardgrass. The assay can be described thus: Test C flooded paddy test. The assay is classed as in vivo, Echinochloa crus-galli. Particulars: Flood, scale 0 to 100 (0 no effect, 100 complete control), 13 to 15 days. The method, boiled down: as §1
The test system of assay [4] is soybean. Put plainly: Test E postemergence. The assay is classed as in vivo, Glycine max. The settings on record: Glycine max, post-emergence. From the text: (§2) Seeds of plant species selected from corn (Zea mays), soybean (Glycine max), velvetleaf (Abutilon theophrasti), lambsquarters (Chenopodium album), wild poinsettia (Euphorbia heterophylla), palmer pigweed (Amaranthus palmeri), waterhemp (common waterhemp, Amaranthus rudis), surinam grass (Brachiaria decumbens), large (Lg) crabgrass (Digitaria sanguinalis), Brazilian crabgrass (Digitaria horizontalis), fall panicum (Panicum dichotomiflorum), giant foxtail (Setaria faberii), green foxtail (Setaria viridis), goosegrass (Eleusine indica), johnsongrass (Sorghum halepense), ragweed (common ragweed, Ambrosia elatior), barnyardgrass (Echinochloa crus-galli), sandbur (southern sandbur, Cenchrus echinatus), arrowleaf sida (Sida rhombifolia), Italian ryegrass (Lolium multiflorum), dayflower (Virginia (VA) dayflower, Commelina virginica), field bindweed (Convolvulus arvensis), morningglory (Ipomoea coccinea), nightshade (eastern black nightshade, Solanum ptycanthum), kochia (Kochia scoparia), yellow nutsedge (Cyperus esculentus), cocklebur (common cocklebur, Xanthium strumarium), smartweed (ladysthumb smartweed, and hairy beggarticks (Bidens pilosa), were planted into a silt loam soil and treated preemergence with test chemicals formulated in a non-phytotoxic solvent mixture which included a surfactant.
(§3) At the same time, plants from these crop and weed species and also horseweed (Canada horseweed, Conyza canadensis), waterhemp_RES1, (ALS & Triazine resistant common waterhemp, Amaranthus rudis), and waterhemp_RES2, (ALS & HPPD resistant common waterhemp, Amaranthus rudis) were planted in pots containing Redi-Earth® planting medium (Scotts Company, 14111 Scottslawn Road, Marysville, Ohio 43041) comprising spaghnum peat moss, vermiculite, wetting agent and starter nutrients were treated with postemergence applications of test chemicals formulated in the same manner. Plants ranged in height from 2 to 18 cm for postemergence treatments (1- to 4-leaf stage). Treated plants and controls were maintained in a greenhouse for 14 to 21 days, after which time all species were compared to controls and visually evaluated. Plant response ratings, summarized in Table E, are based on a scale of 0 to 100 where 0 is no effect and 100 is complete control. A dash (-) response means no test result.

Assay [5] concerns waterhemp_RES2 (ALS & HPPD resistant common waterhemp). Put plainly: Test E postemergence. The class given is in vivo, Amaranthus rudis. The settings on record: Amaranthus tuberculatus, post-emergence, read-out: Plant response rating, Waterhemp_RES2. Summed up: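 Test chemicals formulated in a non-phytotoxic solvent mixture containing a surfactant were applied preemergence to seeds in silt loam soil or postemergence to plants at the 1- to 4-leaf stage in potting mix. After 14 to 21 days in a greenhouse, injury was visually rated against controls on a 0-100 scale (0 = no effect, 100 = complete control).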

For assay [6], the system named is barnyardgrass. Put plainly: Test E postemergence. Particulars: Echinochloa crus-galli, post-emergence, read-out: Plant response rating, Barnyardgrass. The class given is in vivo, Echinochloa crus-galli.
Source text: as §2, §3

Assay [7] concerns Italian ryegrass. The assay can be described thus: Test E postemergence. The class given is in vivo, Lolium multiflorum. Particulars: Lolium multiflorum, post-emergence, read-out: Plant response rating, Ryegrass, Italian.
Source text: as §2, §3

In assay [8] the test system is dayflower. Put plainly: Test E postemergence. The class given is in vivo, Commelina virginica. Particulars: Commelina virginica, post-emergence, read-out: Plant response rating, Dayflower, VA.
Source text: as §2, §3

Setting [9] is: Postemergence, 31 g ai/ha, scale 0 to 100.
The mark [10] stands for this setting: Postemergence, 62 g ai/ha, scale 0 to 100.
Where [11] appears, read: Postemergence, 125 g ai/ha, scale 0 to 100.
Setting [12] is: Postemergence, 250 g ai/ha, scale 0 to 100.
[13] abbreviates: postemergence, 16 g ai/ha, scale 0 to 100, 0 no effect, 100 complete control.

Each structure is given as a SMILES string.

With `FC(F)c1cnn(-c2ccccc2Oc2ncc(Cl)cn2)c1` [Compound 80, 5-chloro-2-[2-[4-(difluoromethyl)-1H-pyrazol-1-yl]phenoxy]pyrimidine], the “Plant response rating, Rice” value in assay [1] (250 g ai/ha), in assay [1] (500 g ai/ha), in assay [1] (1000 g ai/ha) and in assay [1] (2000 g ai/ha) was 0 each time. The “Plant response rating, Sedge, Umbrella” value turned out to be 0 in assay [2] (250 g ai/ha), 0 in assay [2] (500 g ai/ha), 60 in assay [2] (1000 g ai/ha) and 85 in assay [2] (2000 g ai/ha). In addition, the “Plant response rating, Barnyardgrass” value in assay [3] (250 g ai/ha), in assay [3] (500 g ai/ha), in assay [3] (1000 g ai/ha) and in assay [3] (2000 g ai/ha) was 0 throughout.

On to `FC(F)c1cnn(-c2c(Cl)cccc2Oc2ncc(Cl)cn2)c1` [Compound 192], for which the “Plant response rating, Rice” value in assay [1] (31 g ai/ha), in assay [1] (62 g ai/ha), in assay [1] (125 g ai/ha) and in assay [1] (250 g ai/ha) was 0 each time. In addition, the “Plant response rating, Sedge, Umbrella” value in assay [2] (31 g ai/ha) is 0; in assay [2] (62 g ai/ha), 0; in assay [2] (125 g ai/ha) it was 50; in assay [2] (250 g ai/ha), 85. Besides, the “Plant response rating, Barnyardgrass” value in assay [3] (31 g ai/ha), in assay [3] (62 g ai/ha), in assay [3] (125 g ai/ha) and in assay [3] (250 g ai/ha) was 0 each time.

In assay [4] (setting [9]), `Clc1cnn(-c2ccccc2Oc2ncc(Br)cn2)c1` [Compound 5, 5-bromo-2-[2-(4-chloro-1H-pyrazol-1-yl)phenoxy]pyrimidine] came in with a plant response (crop injury) rating, soybean, 0-100 scale at 31 g/ha of 30%. In assay [4] (setting [10]), this molecule registered a plant response (crop injury) rating, soybean, 0-100 scale at 62 g/ha of 70%. This molecule also registered a plant response (crop injury) rating, soybean, 0-100 scale at 125 g/ha in assay [4] (setting [11]) of 80%. This molecule displayed a plant response (crop injury) rating, soybean, 0-100 scale at 250 g/ha in assay [4] (setting [12]) of 95%. This molecule also registered a plant response (crop injury) rating, soybean, 0-100 scale at 16 g/ha in assay [4] (setting [13]) of 20%. In addition, the pest or weed control at 31 g/ha came out at 70% in assay [5] (setting [9]), 0% in assay [6] (setting [9]), 0% in assay [7] (setting [9]) and 10% in assay [8] (setting [9]). Moreover, the pest or weed control at 62 g/ha in assay [5] (setting [10]) amounted to 80%; in assay [6] (setting [10]) it was 0%; in assay [7] (setting [10]), 0%; in assay [8] (setting [10]), 10%. The pest or weed control at 125 g/ha in assay [5] (setting [11]) came to 90%; in assay [6] (setting [11]), 0%; in assay [7] (setting [11]) it was 0%; in assay [8] (setting [11]), 40%. In addition, the pest or weed control at 250 g/ha turned out to be 95% in assay [5] (setting [12]), 10% in assay [6] (setting [12]), 0% in assay [7] (setting [12]) and 75% in assay [8] (setting [12]). Further, the pest or weed control at 16 g/ha in assay [5] (setting [13]) is 60%; in assay [6] (setting [13]), 0%; in assay [7] (setting [13]), 0%; in assay [8] (setting [13]) it was 0%.

In the case of `Fc1cccc(Oc2ncc(Cl)cn2)c1-n1cc(C(F)F)nn1` [Compound 141, 5-chloro-2-[2-[4-(difluoromethyl)-1H-1,2,3-triazol-1-yl]-3-fluorophenoxy]pyrimidine], the “Plant response rating, Rice” value in assay [1] (31 g ai/ha) is recorded as 0; in assay [1] (62 g ai/ha) it was 0; in assay [1] (125 g ai/ha), 40; in assay [1] (250 g ai/ha) it was 60. The “Plant response rating, Sedge, Umbrella” value in assay [2] (31 g ai/ha) is given as 0; in assay [2] (62 g ai/ha) it was 40; in assay [2] (125 g ai/ha) it was 75; in assay [2] (250 g ai/ha), 100. The “Plant response rating, Barnyardgrass” value in assay [3] (31 g ai/ha) is recorded as 0; in assay [3] (62 g ai/ha), 0; in assay [3] (125 g ai/ha) it was 15; in assay [3] (250 g ai/ha) it was 20.

For `Fc1cccc(Oc2ncc(Cl)cn2)c1-n1cc(Cl)cn1` [Compound 177], the “Plant response rating, Rice” value in assay [1] (31 g ai/ha) is reported as 0; in assay [1] (62 g ai/ha), 0; in assay [1] (125 g ai/ha) it was 10; in assay [1] (250 g ai/ha), 10. Also, the “Plant response rating, Sedge, Umbrella” value in assay [2] (31 g ai/ha) is 0; in assay [2] (62 g ai/ha) it was 0; in assay [2] (125 g ai/ha), 60; in assay [2] (250 g ai/ha) it was 85. For the same molecule, the “Plant response rating, Barnyardgrass” value in assay [3] (31 g ai/ha), in assay [3] (62 g ai/ha), in assay [3] (125 g ai/ha) and in assay [3] (250 g ai/ha) was 0 each time.

For the molecule `N#Cc1cccc(Oc2ncc(Cl)cn2)c1-n1cc(OC(F)F)cn1` [Compound 97], the “Plant response rating, Rice” value in assay [1] (31 g ai/ha), in assay [1] (62 g ai/ha), in assay [1] (125 g ai/ha) and in assay [1] (250 g ai/ha) was 0 each time. Besides, the “Plant response rating, Sedge, Umbrella” value is recorded as 60 in assay [2] (31 g ai/ha), 60 in assay [2] (62 g ai/ha), 75 in assay [2] (125 g ai/ha) and 80 in assay [2] (250 g ai/ha). The “Plant response rating, Barnyardgrass” value in assay [3] (31 g ai/ha), in assay [3] (62 g ai/ha), in assay [3] (125 g ai/ha) and in assay [3] (250 g ai/ha) was 0 throughout.
